Source: patent US5869484A, “Phenylcarbamate derivatives suitable to the use as anticholinesterase substances” (priority 1994, dated 1999)

Legend:
AChE hRBC = target: T1, AChE hRBC (Homo sapiens, UniProt P22303); assay: biochemical; details: for AChE inhibitory activity and selectivity: AChE versus BuChE, Table 1; for potency compared with eptastigmine, physostigmine or tacrine: comparison from Table 1
T1 construct: purchased Sigma Chemical; host or cells: human erythrocytes
Experimental: (§1) The incubation time between enzyme and product used for the determinations has been 10'.
(§2) The acetylcholinesterase from human erythrocytes (AChE hRBC), the acetylcholinesterase from Electric Eel (AChE E.eel) and the butyrylcholinesterase from human serum (BuChE hserum) coming from the Sigma Chemical have been used.

[1] = Acute toxicity (single administration) in rat; details: in vivo
BuChE hserum = target: T2, BuChE hserum (Homo sapiens, UniProt P06276); assay: Inhibition of butyrylcholinesterase from human serum (Ellman method); type: biochemical; details: for activity on the BuChE: Table 1
T2 construct: purchased Sigma Chemical; host or cells: human serum
T2 sequence (P06276 29-602): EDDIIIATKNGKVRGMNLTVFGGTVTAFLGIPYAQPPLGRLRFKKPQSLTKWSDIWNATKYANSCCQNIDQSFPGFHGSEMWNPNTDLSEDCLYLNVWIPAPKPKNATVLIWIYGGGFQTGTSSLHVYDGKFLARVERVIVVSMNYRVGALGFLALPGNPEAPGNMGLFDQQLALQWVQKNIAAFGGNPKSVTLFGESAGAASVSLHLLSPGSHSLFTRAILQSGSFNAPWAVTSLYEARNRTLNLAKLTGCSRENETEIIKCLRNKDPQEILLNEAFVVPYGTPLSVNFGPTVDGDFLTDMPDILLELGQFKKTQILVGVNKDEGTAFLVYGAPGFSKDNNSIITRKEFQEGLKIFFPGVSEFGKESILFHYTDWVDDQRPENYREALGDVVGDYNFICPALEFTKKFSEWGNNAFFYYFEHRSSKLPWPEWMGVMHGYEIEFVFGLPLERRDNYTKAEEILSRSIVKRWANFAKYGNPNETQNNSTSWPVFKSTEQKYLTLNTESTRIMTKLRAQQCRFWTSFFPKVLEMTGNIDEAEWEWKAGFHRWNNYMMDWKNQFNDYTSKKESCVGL
Experimental: as §1, §2

AChE E. eel = target: T3, AChE E. eel (Electrophorus electricus, UniProt O42275); assay: biochemical; design: species or system Electric Eel
T3 construct: purchased Sigma Chemical
T3 sequence (O42275 24-633): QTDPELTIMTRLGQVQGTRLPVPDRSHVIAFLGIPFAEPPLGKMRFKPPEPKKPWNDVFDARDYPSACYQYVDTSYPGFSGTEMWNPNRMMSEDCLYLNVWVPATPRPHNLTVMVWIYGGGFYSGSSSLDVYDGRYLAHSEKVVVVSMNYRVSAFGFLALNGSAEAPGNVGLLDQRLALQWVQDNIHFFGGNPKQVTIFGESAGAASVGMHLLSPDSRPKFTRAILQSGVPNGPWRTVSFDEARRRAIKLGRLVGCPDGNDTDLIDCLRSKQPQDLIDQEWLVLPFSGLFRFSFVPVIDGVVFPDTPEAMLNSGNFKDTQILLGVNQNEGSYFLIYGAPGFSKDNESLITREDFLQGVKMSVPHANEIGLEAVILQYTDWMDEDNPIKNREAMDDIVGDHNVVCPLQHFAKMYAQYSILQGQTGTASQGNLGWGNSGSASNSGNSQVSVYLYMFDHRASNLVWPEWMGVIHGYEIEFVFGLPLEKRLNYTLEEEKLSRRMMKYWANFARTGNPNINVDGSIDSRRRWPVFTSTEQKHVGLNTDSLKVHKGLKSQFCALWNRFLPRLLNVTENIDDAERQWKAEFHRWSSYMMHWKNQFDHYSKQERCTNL
Experimental: as §1, §2

[2] = prior art, Eur. Neuropsychopharmacol. 1(3) (1991); cited from earlier work
[3] = Acute toxicity (single administration) in mouse; details: in vivo
[4] = iv, read-out: Toxicity tests (LD50), rat iv
[5] = po, os, read-out: Toxicity tests (LD50), rat os

T1 sequence (P22303 32-617 isoform P22303-2 limits assumed): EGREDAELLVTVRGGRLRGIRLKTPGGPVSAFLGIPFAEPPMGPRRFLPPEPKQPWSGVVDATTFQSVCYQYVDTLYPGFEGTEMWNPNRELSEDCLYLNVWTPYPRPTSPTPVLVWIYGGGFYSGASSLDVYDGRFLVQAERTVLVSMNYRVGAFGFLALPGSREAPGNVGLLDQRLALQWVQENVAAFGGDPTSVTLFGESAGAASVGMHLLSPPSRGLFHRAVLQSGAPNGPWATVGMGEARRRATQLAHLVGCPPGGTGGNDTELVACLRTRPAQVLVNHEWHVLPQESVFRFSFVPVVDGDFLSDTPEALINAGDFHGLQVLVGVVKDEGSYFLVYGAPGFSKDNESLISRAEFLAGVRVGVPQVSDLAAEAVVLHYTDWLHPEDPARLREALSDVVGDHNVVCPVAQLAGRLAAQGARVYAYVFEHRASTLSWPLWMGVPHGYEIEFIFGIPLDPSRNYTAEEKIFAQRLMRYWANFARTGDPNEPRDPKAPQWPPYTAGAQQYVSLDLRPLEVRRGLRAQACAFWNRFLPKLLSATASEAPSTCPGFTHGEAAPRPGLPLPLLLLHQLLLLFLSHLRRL

Row | Compound | IC50 (AChE hRBC) [µM] | AChE inhibitory activity and selectivity (AChE hRBC) | potency compared with eptastigmine, physostigmine or tacrine (AChE hRBC) | IC50 (BuChE hserum) [µM] | activity on the BuChE (BuChE hserum) | IC50 (AChE E. eel) [µM] | other results
1 | COc1ccc(N(C)C(=O)Oc2cccc(C(C)(C)CN(C)C)c2)cc1 [Ex. 35, 3-[(1-dimethylamino-2-methyl)prop-2-yl]-N-methyl-N-(4-methoxy)phenyl phenylcarbamate] | 0.013 | potent and selective AChE inhibitory activity | equal or even superior to that of eptastigmine or of physostigmine | > 100 | poor activity on the BuChE | – | LD50 [1, 4]: 3 mg/kg; LD50 [1, 5]: 40 mg/kg
2 | CC(CN(C)C)c1cccc(OC(=O)NCCCCCCCCN2CCOCC2)c1 (stereo not shown) [Ex. 8, 3-[(1-dimethylamino)prop-2-yl]-N-[8-(4-morpholinyl)octyl]-phenyl carbamate] | 0.22 | – | – | 0.014 | – | 1.3 | –
3 | CN(C)CC(C)(C)c1cccc(OC(=O)N(C)c2ccc(Cl)cc2)c1 [Ex. 37, 3-[(1-dimethylamino-2-methyl)prop-2-yl]-N-(4-chloro)phenyl-N-methyl phenylcarbamate] | 0.06 | potent and selective AChE inhibitory activity | equal or even superior to that of eptastigmine or of physostigmine | 8 | poor activity on the BuChE | – | –
4 | CN(C)CC(C)(C)c1cccc(OC(=O)Nc2cccc(F)c2)c1 [Ex. 20, 3-[(1-dimethylamino-2-methyl)prop-2-yl]-N-(3-fluoro)phenyl phenylcarbamate] | 0.22 | potent and selective AChE inhibitory activity | – | > 100 | poor activity on the BuChE | – | –
5 | Cc1cccc(NC(=O)Oc2cccc(C(C)(C)CN(C)C)c2)c1 [Ex. 21, 3-[(1-dimethylamino-2-methyl)prop-2-yl]-N-(3-methyl)phenyl phenylcarbamate] | 0.6 | – | – | 0.5 | – | – | –
6 | CN(C)CC(C)(C)c1cccc(OC(=O)N(C)c2cccc(Cl)c2)c1 [Ex. 26, 3-[(1-dimethylamino-2-methyl)prop-2-yl]-N-(3-chloro)-phenyl-N-methyl-phenylcarbamate] | 0.4 | potent and selective AChE inhibitory activity | – | 220 | poor activity on the BuChE | – | –
7 | CN(Cc1ccccc1)CC(C)(C)c1cccc(OC(=O)NCCCCCCCCN2CCOCC2)c1 [Ex. 16, 3-[(1-(N-benzyl-N-methyl)amino-2-methyl)prop-2-yl]-N-[8-(4-morpholinyl)-octyl]-phenylcarbamate] | 4.8 | – | – | 0.007 | – | 14 | –
8 | CN(C)CC(C)(C)c1cccc(OC(=O)NCc2ccccc2)c1 [Ex. 24, 3-[(1-dimethylamino-2-methyl)prop-2-yl]-N-benzyl-phenylcarbamate] | 0.06 | – | equal or even superior to that of eptastigmine or of physostigmine | 0.0013 | – | – | –
9 | COc1cc2nc(N3CCN(C(=O)CCCCCCCNC(=O)Oc4cccc(C(C)(C)CN(C)C)c4)CC3)nc(N)c2cc1OC [Ex. 12, 3-[(1-dimethylamino-2-methyl)prop-2-yl]-N-[1-[4-(4-amino-6,7-dimethoxy)quinazolin-2-yl]piperazinyl]-8-octanoyl]-phenyl carbamate] | 0.08 | – | equal or even superior to that of eptastigmine or of physostigmine | 0.05 | – | 0.017 | –
10 | CCN(C(=O)Oc1cccc(C(C)(C)CN(C)C)c1)c1ccc(OC)cc1 [Ex. 36, 3-[(1-dimethylamino-2-methyl)prop-2-yl]-N-ethyl-N-(4-methoxy)phenyl phenylcarbamate] | 1.1 | – | – | 21 | – | – | –
11 | CN(C)CC(C)(C)c1cccc(OC(=O)N(C)c2cccc(F)c2)c1 [Ex. 38, 3-[(1-dimethylamino-2-methyl)prop-2-yl]-N-(3-fluoro)phenyl-N-methyl phenylcarbamate] | 0.05 | potent and selective AChE inhibitory activity | equal or even superior to that of eptastigmine or of physostigmine | > 100 | poor activity on the BuChE | – | LD50 [1, 5]: > 40 mg/kg
12 | Nc1c2c(nc3ccccc13)CCCC2 [Tacrine, 9-amino-1,2,3,4-tetrahydroacridine] | – | – | – | – | – | – | transaminase levels [2]: induce high transaminase levels
13 | C[C@@H]1CN(CCCCCCCCNC(=O)Oc2cccc(C(C)(C)CN(C)C)c2)C[C@H](C)O1 [Ex. 2, 3-[(1-dimethylamino-2-methyl)-prop-2-yl]-N-8-[[4-(cis2,6-dimethyl)morpholinyl]octyl]-phenylcarbamate] | 0.42 | – | – | 0.02 | – | 1.1 | LD50 ([3]; po, os, read-out: Toxicity tests (LD50), mouse os): > 50 mg/kg
14 | CN(C)CC(C)(C)c1cccc(OC(=O)N(C)C2CCCCC2)c1 [Ex. 40, 3-[(1-dimethylamino-2-methyl)prop-2-yl]-N-cyclohexyl-N-methyl phenylcarbamate] | 0.18 | potent and selective AChE inhibitory activity | equal or even superior to that of eptastigmine or of physostigmine | > 100 | poor activity on the BuChE | – | LD50 [1, 5]: > 40 mg/kg
15 | CCCCN(C(=O)Oc1cccc(C(C)(C)CN(C)C)c1)c1ccccc1 [Ex. 32, 3-[(1-dimethylamino-2-methyl)prop-2-yl]-N-butyl-N-phenyl phenylcarbamate] | 0.42 | – | – | 70 | – | – | –
16 | C[C@H]1CN(CCCCCCCCNC(=O)Oc2cccc(C(C)(C)CN(C)C)c2)C[C@H](C)O1 (relative stereo) [Ex. 3, 3-[(1-dimethylamino-2-methyl)-prop-2-yl]-N-[8-[4-(trans 2,6-dimethyl)morpholinyl]octyl]-phenylcarbamate] | 0.2 | – | – | 0.02 | – | 1.2 | –
17 | CCCCNC(=O)Oc1cccc(C(C)(C)CN(C)C)c1 [Ex. 4, 3-[(1-dimethylamino-2-methyl)prop-2-yl]-N-butylphenyl carbamate] | 0.13 | – | equal or even superior to that of eptastigmine or of physostigmine | 0.0016 | – | 0.25 | –
18 | CN(C)CC(C)(C)c1cccc(OC(=O)N(C)c2ccccc2)c1 [Ex. 25, 3-[(1-dimethylamino-2-methyl)prop-2-yl]-N-phenyl-N-methyl-phenylcarbamate] | 1.7 | potent and selective AChE inhibitory activity | – | > 1000 | poor activity on the BuChE | – | LD50 [1, 4]: 14 mg/kg; LD50 [1, 5]: 56 mg/kg; LD50 ([3]; iv, read-out: Toxicity tests (LD50), mouse iv): 15 mg/kg
19 | CCCCCCCNC(=O)Oc1cccc(C(C)(C)CN(C)C)c1 [Ex. 5, 3-[(1-dimethylamino-2-methyl)prop-2-yl]-N-heptyl-phenyl carbamate] | 0.18 | – | equal or even superior to that of eptastigmine or of physostigmine | 0.03 | – | 0.12 | –
20 | CN(C)CC(C)(C)c1cccc(OC(=O)N(C)c2cccc(C(F)(F)F)c2)c1 [Ex. 39, 3-[(1-dimethylamino-2-methyl)prop-2-yl]-N-methyl-N-(3-trifluoromethyl) phenyl phenylcarbamate] | 1.1 | potent and selective AChE inhibitory activity | – | > 100 | poor activity on the BuChE | – | –
21 | COc1cccc(NC(=O)Oc2cccc(C(C)(C)CN(C)C)c2)c1 [Ex. 22, 3-[(1-dimethylamino-2-methyl)prop-2-yl]-N-(3-methoxy)phenyl phenylcarbamate] | 0.21 | – | – | 0.6 | – | – | –
22 | CN(C)CC(C)(C)c1cccc(OC(=O)Nc2ccccc2)c1 [Ex. 19, 3-[1(1-dimethylamino-2-methyl)prop-2-yl]-N-phenyl phenylcarbamate] | 0.1 | – | equal or even superior to that of eptastigmine or of physostigmine | 0.23 | – | – | –
23 | CN(C)CC(C)(C)c1cccc(OC(=O)NCCCCCCCCCCN2CCOCC2)c1 [Ex. 18, 3-[(1-dimethylamino-2-methyl)prop-2-yl]-N-[10-(4-morpholinyl)decyl]-phenylcarbamate] | 0.1 | – | equal or even superior to that of eptastigmine or of physostigmine | – | – | – | –
24 | Nc1c2c(nc3ccccc13)CCCC2O (stereo not shown) [Velnacrine] | – | – | – | – | – | – | transaminase levels [2]: induce high transaminase levels
25 | COc1cc2nc(NCCCCCCCNC(=O)Oc3cccc(C(C)(C)CN(C)C)c3)nc(N)c2cc1OC [Ex. 13, 3-[(1-dimethylamino-2-methyl)prop-2-yl]-N-[N-[(4-amino-6,7-dimethoxy)quinazolin-2-yl]aminoheptyl]-phenyl carbamate] | 0.015 | – | equal or even superior to that of eptastigmine or of physostigmine | 0.028 | – | 0.023 | –
26 | CN(C)CC(C)(C)c1cccc(OC(=O)Nc2cccc(Cl)c2)c1 [Ex. 23, 3-[(1-dimethylamino-2-methyl)prop-2-yl]-N-(3-chloro)phenyl phenylcarbamate] | 0.22 | potent and selective AChE inhibitory activity | – | > 100 | poor activity on the BuChE | – | –
